Results reported in patent US12667101B2, “Picolinamide derivatives useful as agricultural fungicides” (GLOBACHEM NV, priority 2019, dated 2026).
Converted amounts (≈) assume the structure as drawn.

tested on: Zymoseptoria tritici; assay: Fungicidal activity screen in amended agar, 96 well plates; assay type: cell-based; settings: 168 h, 1% potato dextrose agar amended to 20, 2, 0.2 and 0.02 ppm, 10,000 spores/mL, 18° C., assessed after 7 days, read-out: Zymoseptoria (EC50 ranking of fungal growth vs DMSO controls)
Procedure: Compounds were screened in 96 well plates with 10 compounds per plate. Each compound was screened using agar amended to 20, 2, 0.2 and 0.02 ppm of the test material. Proline at 50 and 10 ppm and 0.2% DMSO were used respectively as positive and negative controls. Each test concentration and standard were tested twice on a plate.
Compounds were screened against Zymoseptoria tritici. The agar used in the test was 1% potato dextrose agar. Sufficient spores were added to the appropriate agar to give 10,000 spores/mL agar.
A ×10 stock solution in 2% DMSO was produced for each dose i.e. 200, 20, 2 and 0.2 ppm, and 10 μl of this added to the appropriate wells on the plate. An equivalent amount of 2% DMSO and Proline stock at 500 and 100 ppm were added for the controls. To each well, 90 μl of the appropriate agar spore suspension was added to give the final well concentrations outlined in the first paragraph.
Plates were incubated at room temperature (18° C.) and assessed after 7 days.
The amount of fungal growth in each well was compared to the DMSO controls and scored according to the following key: • A—EC50<2 ppm • B—2≤EC50<20 • C—EC50≥20 • D—No activity detected at the highest dose tested • NT—Not tested

SMILES	EC50
CCOc1ccc2cc(NC(=O)c3nccc(OC)c3O)ccc2n1 [Example 1, N-(2-ethoxyquinolin-6-yl)-3-hydroxy-4-methoxypicolinamide]	2 to 20 µg/mL (≈ 5.89 to 58.9 µM)
COc1ccnc(C(=O)Nc2ccc3nc(Oc4ccc(F)cc4)ccc3c2)c1O [Example 2, N-(2-(4-fluorophenoxy)quinolin-6-yl)-3-hydroxy-4-methoxypicolinamide]	< 2 µg/mL
CCCOc1ccc2cc(NC(=O)c3nccc(OC)c3O)ccc2n1 [Example 3, 3-hydroxy-4-methoxy-N-(2-propoxyquinolin-6-yl)picolinamide]	< 2 µg/mL
CCCCOc1ccc2cc(NC(=O)c3nccc(OC)c3O)ccc2n1 [Example 4, N-(2-butoxyquinolin-6-yl)-3-hydroxy-4-methoxypicolinamide]	2 to 20 µg/mL (≈ 5.44 to 54.4 µM)
COc1ccnc(C(=O)Nc2ccc3nc(OC(C)C)ccc3c2)c1O [Example 5, 3-hydroxy-N-(2-isopropoxyquinolin-6-yl)-4-methoxypicolinamide]	< 2 µg/mL
COc1ccnc(C(=O)Nc2ccc3nc(OC(C)C(C)C)ccc3c2)c1O (stereo not shown) [Example 6, 3-hydroxy-4-methoxy-N-(2-((3-methylbutan-2-yl)oxy)quinolin-6-yl)picolinamide]	< 2 µg/mL
COc1ccnc(C(=O)Nc2ccc3nc(OCCC(C)C)ccc3c2)c1O [Example 7, 3-hydroxy-N-(2-(isopentyloxy)quinolin-6-yl)-4-methoxypicolinamide]	< 2 µg/mL
COc1ccnc(C(=O)Nc2ccc3nc(N(C)c4ccc(F)cc4)ccc3c2)c1O [Example 8, N-(2-((4-fluorophenyl)(methyl)amino)quinolin-6-yl)-3-hydroxy-4-methoxypicolinamide]	< 2 µg/mL
COc1ccnc(C(=O)Nc2ccc3nc(Sc4ccc(F)cc4)ccc3c2)c1O [Example 9, N-(2-((4-fluorophenyl)thio)quinolin-6-yl)-3-hydroxy-4-methoxypicolinamide]	< 2 µg/mL
COc1ccnc(C(=O)Nc2ccc3nc(Cl)ccc3c2)c1O [Example 10, N-(2-chloroquinolin-6-yl)-3-hydroxy-4-methoxypicolinamide]	≥ 20 µg/mL
CCC(C)Oc1ccc2cc(NC(=O)c3nccc(OC)c3O)ccc2n1 (stereo not shown) [Example 11, N-(2-(sec-butoxy)quinolin-6-yl)-3-hydroxy-4-methoxypicolinamide]	< 2 µg/mL
COc1ccnc(C(=O)Nc2ccc3ncc(Cc4ccccc4)cc3c2)c1O [Example 13, N-(3-benzylquinolin-6-yl)-3-hydroxy-4-methoxypicolinamide]	≥ 20 µg/mL
COc1ccnc(C(=O)Nc2ccc3cc(Cc4ccccc4)ccc3n2)c1O [Example 14, N-(6-benzylquinolin-2-yl)-3-hydroxy-4-methoxypicolinamide]	≥ 20 µg/mL
COc1ccnc(C(=O)Nc2ccc3cc(Br)ccc3n2)c1O [Example 15, N-(6-bromoquinolin-2-yl)-3-hydroxy-4-methoxypicolinamide]	2 to 20 µg/mL (≈ 5.34 to 53.4 µM)
COc1ccnc(C(=O)Nc2ccc3cc(-c4ccccc4)ccc3n2)c1O [Example 16, 3-hydroxy-4-methoxy-N-(6-phenylquinolin-2-yl)picolinamide]	2 to 20 µg/mL (≈ 5.39 to 53.9 µM)
COc1ccnc(C(=O)Nc2ccc3cc(Br)ccc3n2)c1OC(C)=O [Example 17, 2-((6-bromoquinolin-2-yl)carbamoyl)-4-methoxypyridin-3-yl acetate]	2 to 20 µg/mL
COc1ccnc(C(=O)Nc2ccc3cc(-c4ccccc4)ccc3n2)c1OC(C)=O [Example 18, 4-methoxy-2-((6-phenylquinolin-2-yl)carbamoyl)pyridin-3-yl acetate]	2 to 20 µg/mL
COc1ccnc(C(=O)Nc2ccc3nc(Oc4ccc(F)cc4)ccc3c2)c1OC(C)=O [Example 19, 2-((2-(4-fluorophenoxy)quinolin-6-yl)carbamoyl)-4-methoxypyridin-3-yl acetate]	< 2 µg/mL
COc1ccnc(C(=O)Nc2ccc3nc(Oc4ccccc4Cl)ccc3c2)c1O [Example 20, N-(2-(2-chlorophenoxy)quinolin-6-yl)-3-hydroxy-4-methoxypicolinamide]	≥ 20 µg/mL
CCCCCc1cc(Oc2ccc(F)cc2)nc2ccc(NC(=O)c3nccc(OC)c3O)cc12 [Example 21, N-(2-(4-fluorophenoxy)-4-pentylquinolin-6-yl)-3-hydroxy-4-methoxypicolinamide]	≥ 20 µg/mL

SMILES	EC50
COc1ccccc1Oc1ccc2cc(NC(=O)c3nccc(OC)c3O)ccc2n1 [Example 22, 3-hydroxy-4-methoxy-N-(2-(2-methoxyphenoxy)quinolin-6-yl)picolinamide]	≥ 20 µg/mL
COc1ccnc(C(=O)Nc2ccc3nc(N(C)c4ccccc4Cl)ccc3c2)c1O [Example 23, N-(2((2-chlorophenyl)(methyl)amino)quinolin-6-yl)-3-hydroxy-4-methoxypicolinamide]	< 2 µg/mL
COc1ccnc(C(=O)Nc2ccc3nc(N(C)c4cccnc4Cl)ccc3c2)c1O [Example 25, N-(2-((2-chloropyridin-3-yl)(methyl)amino)quinolin-6-yl)-3-hydroxy-4-methoxypicolinamide]	2 to 20 µg/mL (≈ 4.59 to 45.9 µM)
COc1ccnc(C(=O)Nc2ccc3nc(Sc4ccccc4Cl)ccc3c2)c1O [Example 26, N-(2-((2-chlorophenyl)thio)quinolin-6-yl)-3-hydroxy-4-methoxypicolinamide]	< 2 µg/mL
COc1ccnc(C(=O)Nc2ccc3nc(Oc4cccnc4Cl)ccc3c2)c1O [Example 27, N-(2-((2-chloropyridin-3-yl)oxy)quinolin-6-yl)-3-hydroxy-4-methoxypicolinamide]	≥ 20 µg/mL
COc1ccnc(C(=O)Nc2ccc3nc(Sc4cccnc4Cl)ccc3c2)c1O [Example 28, N-(2-((2-chloropyridin-3-yl)thio)quinolin-6-yl)-3-hydroxy-4-methoxypicolinamide]	≥ 20 µg/mL
COc1ccnc(C(=O)Nc2ccc3nc(Sc4ccc(F)cc4)ccc3c2)c1OC(C)=O [Example 29, 2-((2-((4-fluorophenyl)thio)quinolin-6-yl)carbamoyl)-4-methoxypyridin-3-yl acetate]	≥ 20 µg/mL
COc1ccnc(C(=O)Nc2ccc3nc(Oc4ccccc4Cl)ccc3c2)c1OC(C)=O [Example 30, 2-((2-(2-chlorophenoxy)quinolin-6-yl)carbamoyl)-4-methoxypyridin-3-yl acetate]	2 to 20 µg/mL
CCCCCc1cc(Oc2ccc(F)cc2)nc2ccc(NC(=O)c3nccc(OC)c3OC(C)=O)cc12 [Example 31, 2-((2-(4-fluorophenoxy)-4-pentylquinolin-6-yl)carbamoyl)-4-methoxypyridin-3-yl acetate]	≥ 20 µg/mL
COc1ccnc(C(=O)Nc2ccc3nc(N(C)c4ccccc4Cl)ccc3c2)c1OC(C)=O [Example 32, 2-((2-((2-chlorophenyl)(methyl)amino)quinolin-6-yl)carbamoyl)-4-methoxypyridin-3-yl acetate]	< 2 µg/mL
COc1ccnc(C(=O)Nc2ccc3nc(Sc4ccccc4Cl)ccc3c2)c1OC(C)=O [Example 33, 2-((2-((2-chlorophenyl)thio)quinolin-6-yl)carbamoyl)-4-methoxypyridin-3-yl acetate]	≥ 20 µg/mL
COc1ccnc(C(=O)Nc2ccc3nc(N(C)c4cccnc4Cl)ccc3c2)c1OC(C)=O [Example 34, 2-((2-((2-chloropyridin-3-yl)(methyl)amino)quinolin-6-yl)carbamoyl)-4-methoxypyridin-3-yl acetate]	≥ 20 µg/mL
COc1ccnc(C(=O)Nc2ccc3nc(Sc4cccnc4Cl)ccc3c2)c1OC(C)=O [Example 35, 2-((2-((2-chloropyridin-3-yl)thio)quinolin-6-yl)carbamoyl)-4-methoxypyridin-3-yl acetate]	2 to 20 µg/mL
COc1ccnc(C(=O)Nc2ccc3nc(Oc4cccnc4Cl)ccc3c2)c1OC(C)=O [Example 36, 2-((2-((2-chloropyridin-3-yl)oxy)quinolin-6-yl)carbamoyl)-4-methoxypyridin-3-yl acetate]	≥ 20 µg/mL
COc1ccnc2c(=O)n(-c3ccc4nc(Sc5ccc(F)cc5)ccc4c3)c(=S)oc12 [Example 37, 3-(2-((4-fluorophenyl)thio)quinolin-6-yl)-8-methoxy-2-thioxo-2,3-dihydro-4H-pyrido[2,3-e][1,3]oxazin-4-one]	< 2 µg/mL
CCC(C)Oc1ccc2cc(-n3c(=S)oc4c(OC)ccnc4c3=O)ccc2n1 (stereo not shown) [Example 38, 3-(2-(sec-butoxy)quinolin-6-yl)-8-methoxy-2-thioxo-2,3-dihydro-4H-pyrido[2,3-e][1,3]oxazin-4-one]	2 to 20 µg/mL (≈ 4.88 to 48.8 µM)
COc1ccnc2c(=O)n(-c3ccc4nc(OC(C)C(C)C)ccc4c3)c(=S)oc12 (stereo not shown) [Example 39, 8-methoxy-3-(2-((3-methylbutan-2-yl)oxy)quinolin-6-yl)-2-thioxo-2,3-dihydro-4H-pyrido[2,3-e][1,3]oxazin-4-one]	≥ 20 µg/mL
COc1ccnc2c(=O)n(-c3ccc4nc(Oc5ccccc5Cl)ccc4c3)c(=S)oc12 [Example 40, 3-(2-(2-chlorophenoxy)quinolin-6-yl)-8-methoxy-2-thioxo-2,3-dihydro-4H-pyrido[2,3-e][1,3]oxazin-4-one]	< 2 µg/mL
COc1ccccc1Oc1ccc2cc(-n3c(=S)oc4c(OC)ccnc4c3=O)ccc2n1 [Example 41, 8-methoxy-3-(2-(2-methoxyphenoxy)quinolin-6-yl)-2-thioxo-2,3-dihydro-4H-pyrido[2,3-e][1,3]oxazin-4-one]	≥ 20 µg/mL
COc1ccnc2c(=O)n(-c3ccc4nc(N(C)c5ccccc5Cl)ccc4c3)c(=S)oc12 [Example 42, 3-(2-((2-chlorophenyl)(methyl)amino)quinolin-6-yl)-8-methoxy-2-thioxo-2,3-dihydro-4H-pyrido[2,3-e][1,3]oxazin-4-one]	2 to 20 µg/mL (≈ 4.19 to 41.9 µM)
